Reference: ChEMBL document CHEMBL3507680, “University of Dundee, Gates Library screen for HepG2 cell viability”

Test: Human HepG2 cell viability assay in 384 well format
Format: toxicity, cell-based
Parameters: dose 125 nL, time 70.5 hour; concentration not given beside the values
Details: HepG2 cells, read-out: Inhibition

Compound	cytotoxicity at 70.5 h [%]
CC1c2ncc(Cn3cncn3)n2CCN1C(=O)N(C)C (configuration not stated)	-7.73
COCCN1CCC2(CC1)CN(C(=O)c1cccs1)CCO2	33.9
CCNC(=O)Nc1ncc(-c2cccnc2)s1	-6.64
CCCc1nc(NCCCn2ccnc2)c2c(n1)c(C)nn2CC	-11.1
Cc1nn(C)cc1S(=O)(=O)NC1(CN2CCOCC2)CCCCC1	-3.14
CN(C)CCO[C@H]1CN(C(=O)c2ccc3c(c2)OCO3)[C@@H]2COC[C@H]12	-11.6
CC(C)c1nc(O)c2nnn(C[C@@H]3CCCN(Cc4ccsc4)C3)c2n1	-2.22
COc1ccc(C(=O)N2CC[C@H](CO)[C@H](O)C2)c(C)c1	-4.34
CC(C)n1[nH]c(=O)c2c1NC(=O)CSC2c1cccc(OCC(N)=O)c1 (configuration not stated)	-11.3
CC(=O)N1CCOC(c2cc(N3CC(O)C3)nc(C)n2)C1 (configuration not stated)	-16.5
O=C(CCc1ccccc1)N1C[C@@H]2CN(Cc3ccoc3)CCO[C@@H]2C1	-11.8
Cc1nc(C(C)(C)C)sc1C(=O)NCCn1ccnc1	-7.91
O=C(NCCCC(=O)N1Cc2ccccc2C1)NCc1ccsc1	5.3
O=C(c1cnccn1)N1CCCC2(CCN(Cc3ccsc3)C2)C1 (configuration not stated)	-5.33
Cc1cc(NC(=O)NCc2cccnc2OC(C)C)no1	-0.0866
Cc1cc(S(C)(=O)=O)c(C)c(S(=O)(=O)N2CCCCCC2)c1	-7.91
COCCC1CN(Cc2cn(CCC(N)=O)c3ccccc23)CCO1 (configuration not stated)	-5.24
CS(=O)(=O)c1cccc(C(N)c2ccc(F)c(F)c2)c1 (configuration not stated)	-4.97
Cc1cc(C)n(C2CN(CC(=O)NCc3ccccn3)C2)n1	-16.2
c1cnc(N2CC3(CCN(C4CCOC4)CC3)c3ccccc32)nc1 (configuration not stated)	-6.16
CCn1cc(CN2C[C@@H]3CCCN3C[C@@H]2CCSC)c(C)n1	-22.6
CCOC(=O)N1CCN(Cc2ccc(OCc3nccn3C)cc2)CC1	1.77
Clc1ccc(N2CCC(C3CCN(Cc4cccnc4)CC3)C2)nc1 (configuration not stated)	-8.52

Compound	cytotoxicity at 70.5 h [%]
CC(C)OC(=O)N1CCCC(c2nccn2Cc2ccncc2)C1 (configuration not stated)	-8
CCc1ccc(CN(C)C(=O)c2ccc(CSc3nnc[nH]3)o2)nc1	-11.2
CN1CCN(C(=O)c2n[nH]c3c2CCN(Cc2nccs2)C3)CC1	-11.9
CC(C)(C)NC(=O)c1cccc(CN2CCS(=O)(=O)CC2)c1	-4.97
Cn1ccc(C(=O)N2CCC(Cc3ccc4ncccc4c3)CC2)n1	14.8
COc1ccc(OCC(=O)NC(C)c2ccc(F)cc2)c(C(=O)O)c1 (configuration not stated)	-7
Cc1ccc2c(c1)c(CNC(=O)C1CCCN(CC(N)=O)C1)nn2C (configuration not stated)	-10.2
COCCN(C)C[C@@H]1CN(C(=O)c2cccc(Cl)c2)C[C@@H]1CO	-13.7
CN(CCc1nccs1)C(=O)C1(C#N)CCCCC1	0.343
O=C(CC1CCCC1)N1CCC2(CC1)[C@H](O)C[C@@H]2O	-12.2
CNC(=O)C(NC(=O)c1nccn2ccnc12)c1ccc(F)c(F)c1 (configuration not stated)	-1.99
CCOCC(O)CN1CCN(C(=O)c2cc(Cl)ccc2F)CC1 (configuration not stated)	2.85
CN(Cc1ccc(F)cc1)CC1(O)CCN(C(=O)c2cccn2C)C1 (configuration not stated)	-10.7
CN(C)C(=O)C1OC2(CCN(C(=O)c3ccoc3)CC2)c2ccccc21 (configuration not stated)	-14.7
Cc1nc(NCCc2ccccc2)cc(C(=O)N2CCCCC2)n1	-0.559
Cc1cccc(CS(=O)(=O)CC(=O)NCCCOC(C)C)c1	16.8
COCCn1ccnc1CN1CCc2[nH]cnc2C1c1cccc(O)c1 (configuration not stated)	-14.3
CC(=O)N1CCN(C(=O)c2cnn(-c3ccccc3Cl)c2)CC1	3.15
O=C([C@H]1CCCO1)N1CCOC2(CCCN(c3ncccc3F)C2)C1 (some centres not stated)	-15.7
CCCc1cc(C(=O)N[C@H](C)[C@@H](O)c2ccc(O)cc2)n(C)n1	-11.6
CCC(C)N(Cc1sccc1C)C(=O)c1cc(N)ccn1 (configuration not stated)	-11.9
CN(c1nc(Cn2cc(Br)ccc2=O)cs1)C1CC1	-4.85
c1cnc(N2CCCC(c3cncc(-n4ccnc4)n3)C2)nc1 (configuration not stated)	13.4

Compound	cytotoxicity at 70.5 h [%]
c1nc2c(c(C3CC3)n1)CCN(Cc1ccc3c(c1)OCO3)CC2	-4.69
CS(=O)(=O)c1cccc(C(=O)NCC2(c3ccccc3)CC2)c1	-11.2
COCC(=O)N(Cc1ccc2[nH]ccc2c1)C1CC1	-25.2
COc1cccc(CCNCc2c(C)nn(C)c2N(C)C)c1	-4.91
COCCC1(CNC(=O)Nc2ccnc(C)c2)CCCC1	-20.4
N#CC1COCCN1C(=O)c1ccc2[nH]ccc2c1 (configuration not stated)	0.401
Cn1c(C(F)(F)F)nn(CCNC(=O)c2cnc3ccccc3n2)c1=O	-2.86
Cc1noc([C@@H]2C[C@H](NC(=O)Nc3cccc(F)c3)CN2C)n1	6.23
OCCCN1CCc2[nH]nc(C(c3ccccc3)c3ccccc3)c2C1	-3.77
CCCC(C)CN1CCC(n2cc(C3CCCC3)nn2)CC1 (configuration not stated)	-6.08
O=C(CN1CCCC1Cn1cncn1)Nc1ccnn1C1CCCC1 (configuration not stated)	-4.96
O=C(CCN1CCCC(CO)(CC2CC2)C1)NCc1cccc(Cl)c1 (configuration not stated)	-7.94
CN(C)c1ccc(NC(=O)N2CCCCC2c2ncc[nH]2)cn1 (configuration not stated)	14.8
CCOC(=O)N1CCN(C(=O)C(C)n2ccnc2C(C)C)CC1 (configuration not stated)	8.16
Cc1nn(C)c2c(=O)n(Cc3ccc(C#N)cc3)nnc12	-10.1
Cc1csc(N2CCN(Cc3cccnc3)CC2C)n1 (configuration not stated)	-19.6
COC(C)(C)CC(C)NC(=O)Nc1ccccn1 (configuration not stated)	-2.34
CNC(=O)[C@@H]1CCO[C@@H]2CCN(C3CCOCC3)C[C@@H]21	-0.345
CCc1nnc(CN2CCCC(c3cc(C(F)(F)F)[nH]n3)C2)o1 (configuration not stated)	0.217
CCOCCC(=O)NCC1CCCO1 (configuration not stated)	-6.72
CCn1cc(C(=O)Nc2ccc(C)cc2C(=O)NC)cn1	-3.07
Cc1ccn(-c2ccc(N3CCN(Cc4ccccn4)CC3)nn2)n1	-7.77
COc1ccccc1CC(=O)N1CCC(NCc2cc[nH]c2)CC1	4.03

Compound	cytotoxicity at 70.5 h [%]
Cn1cc(C[C@H]2[C@@H](O)CCN2C(=O)C2CCC2)cn1	-1.34
COc1ccccc1OCCCn1c(C)c(C)oc1=O	2.36
O=C(c1cnco1)N1CCCC(Cc2nccs2)C1 (configuration not stated)	-7.07
COc1ccccc1CC(=O)NC(CC(=O)O)c1ccc(F)cc1 (configuration not stated)	-8.41
CN1CCC2(C=C(C(=O)N(C)C)c3ccccc32)CC1	2.91
O=C(Nc1ccc(-c2nc3c([nH]2)CCNC3)cc1)N1CCCC1	-15.7
COc1ccccc1N1CCC(CNC(=O)CN2CSCC2=O)C1 (configuration not stated)	-7.92
CCCN(CCC)c1ncc(S(=O)(=O)c2ccccc2)c(N)n1	-15.1
CCOCC(=O)NC1(c2cccc(Br)c2)CC1	13.9
COCCCNC(=O)CN(C)C(=O)c1cc(Cl)ccc1O	0.174
CCC(NC(=O)c1nn(C)cc1C(=O)O)c1ccc(C)cc1C (configuration not stated)	-6.11
Cc1nc(N2CCC3(CCCN(CC4CC4)C3=O)C2)c2sccc2n1 (configuration not stated)	0.2
Cc1cnc(C(=O)N2CCCC(n3cncn3)C2)cn1 (configuration not stated)	-4.15
Cn1cccc1C(=O)N1C[C@@H](OCc2ccncc2)[C@@H]2OCCC[C@@H]21	-1.09
CC(CNC1CCN(Cc2ccncc2)CC1)c1ccc(F)cc1F (configuration not stated)	-11
COCCCn1ccc(NC(=O)NCCn2ccnc2)n1	-8.92
Cc1nc(-c2nnc(SCC(=O)O)n2C(C)c2ccccc2)co1 (configuration not stated)	-10
CCN1CCO[C@@H]2CN(C(=O)c3cocn3)C[C@@H]2C1	34.2
CC(c1cncs1)N(C)Cc1ccc(CCC(C)(C)O)cc1 (configuration not stated)	-5.33
CC(C)COCC(C)NC(=O)NCc1cccc(-n2cncn2)c1 (configuration not stated)	-2.93
CCc1cnc(CN2CCC(N(C)Cc3noc(C4CC4)n3)C2)o1 (configuration not stated)	23.8
CCS(=O)(=O)N1C[C@H]2CC[C@@]3(N=C(C)N(CC(C)C)C3=O)[C@H]2C1	-10.8
COc1ccc(CNC(=O)NC2CCN(CC(F)F)CC2)cc1C	-7.09

Compound	cytotoxicity at 70.5 h [%]
Cc1ccc(C)c(S(=O)(=O)NCCNc2ccc(-n3cccc3)nn2)c1	-7.55
CCn1nc2c(cc1=O)CN(CCOc1cccc(C#N)c1)CC2	-3.93
COc1ncc(NCc2ccc(Cl)c(Cl)c2)cc1C(N)=O	-5.01
O=C1[C@@H]2CCN(Cc3ccoc3)C[C@@H]2OCCN1c1ccccc1	-10.9
COc1ccccc1-c1nnc([C@H]2CCN(C(=O)C3CC3)C2)o1	11.5
Cc1cc(C)c(-n2cccn2)c(CN2CCOCC(CN(C)C)C2)c1 (configuration not stated)	-3.75
Cc1nccn1-c1cc(CNC(=O)C2CCC(=O)N2)ccn1 (configuration not stated)	-6.29
CC(C)(C)c1cc(C[C@H]2CNCC[C@H]2CC(=O)NCc2cccs2)no1	-6.24
C1CN(c2nc3c(c(NC4CC4)n2)CN(CC2CCOC2)CC3)CCO1 (configuration not stated)	-9.83
COc1cc(OC)c(C2CC(=O)Oc3cc(C)[nH]c(=O)c32)c(OC)c1 (configuration not stated)	-20.1
COc1cc(OC)cc(N2CCC(NCc3cccs3)C2=O)c1 (configuration not stated)	-0.0615
COCCc1noc(CN2CCOC(Cn3cc(C)cn3)C2)n1 (configuration not stated)	0.177
COCCN1C(=O)C2(CCN(CC3CC3)CC2)c2ccccc21	0.205
O=C(OCc1ccccc1)c1cccc(NC(=O)C2COCCO2)c1 (configuration not stated)	1.04
Cn1ccnc1CN1CCC2(CC(=O)N(c3cccc(F)c3)C2)C1 (configuration not stated)	-4.42
COc1cc(F)c(C(=O)NCc2ccon2)c(F)c1	-3.42
OCCN(Cc1ccncc1)CC1(c2ccc(Cl)cc2)CCCC1	1.74
O=C(c1cc(C2CC2)[nH]n1)N1CCCN(c2nccs2)CC1	-5.32
O=c1cc(CN(CCO)C2CC2)nc2ccccn12	-3.82
COC[C@@H]1CC[C@H]2[C@H](CCN2S(=O)(=O)c2ccc(F)cc2)O1	-28.6
